{
  "source": "patent US20150064200A1",
  "about": "“METHODS AND COMPOSITIONS FOR 6-PHOSPHOGLUCONATE DEHYDROGENASE (6-PGD) AS A TARGET FOR LUNG CANCER THERAPY” (BETH ISRAEL DEACONESS MEDICAL CENTER, INC., priority 2012, published 2015)",
  "key": {"[1]": {"test_system": "senescence-associated beta galactosidase (SA-β-GAL) activity", "test": "Senescence-associated beta galactosidase (SA-β-GAL) staining and chromogenic assay", "format": "cell-based, human", "details": "cells with 6-PGD knockdown", "from_the_text": "We noticed that the cells with 6-PGD knocked down were enlarged and flattened-shapes characteristic of cells undergoing senescence. We therefore stained the cells for senescence-associated beta galactosidase (SA-β-GAL) activity. Because shRNA1 and shRNA2 had the most dramatic effects on 6-PGD expression and cell proliferation, we opted to test these two shRNAs in these experiments. […] Therefore, we concluded that suppression of 6-PGD induces cellular senescence in these cancer cells.\nWe tested whether the use of glucose or fructose in the medium might influence the phenotypic outcome of 6-PGD suppression. Fructose can be used to generate glycolytic metabolites via different pathways. For example, in the liver, fructose can be phosphorylated by fructokinase to yield fructose-1-phosphate and ultimately glyceraldehyde-3-phosphate to re-enter glycolysis. Fructose can also enter glycolysis when phosphorylated by hexokinase to become fructose-6-phosphate. We reasoned that if H1975 could metabolize fructose by these mechanisms, cells grown in fructose without glucose would likely be devoid of glucose-6-phosphate, bypassing the oxidative branch of the PPP. This scenario may be similar to the PPP shutdown by means of G6PD depletion. H1975 cells were treated with doxycycline to induce 6-PGD knockdown in 2 g/L fructose (no glucose). […]"}, "H1975 cells [2]": {"test_system": "H1975 cells", "test": "Cell proliferation of H1975 cells upon knockdown", "format": "cell-based, human", "details": "6-PGD knockdown", "from_the_text": "(§1) To test the functional role of 6-PGD in human non small cell lung carcinoma (NSCLC), we used H1975 cells as our model system (FIG. 2A). These adenocarcinoma cells harbor two mutations in the EGFR (L858R/T790M) and are widely used to study the mechanism and treatment of gefitinib/erlotinib-resistant lung cancer cells. We chose to use an inducible shRNA system to knock down 6-PGD expression. Three nonoverlapping shRNAs were chosen in these experiments. […] Importantly, 6-PGD expression knockdown caused a substantial decrease in cell proliferation. To further corroborate the involvement of 6-PGD in NSCLC proliferation in vitro, we performed expression rescue experiments (FIG. 2B). H1975 cells expressing control shRNA or 6-PGD shRNA1 were transduced by either empty- or mouse-6PGD retrovirus. […] Overexpression of mouse 6-PGD alone enhanced H1975 cell growth. […] Our result confirmed that the growth inhibition was due to 6-PGD knockdown and not a non-specific artifact of the shRNA.\nThe dramatic decrease in cell proliferation when 6-PGD was knocked down implies that the oxidative branch of the pentose phosphate pathway (PPP) could be indispensable for cell growth. […] To address this discrepancy, we next knocked down G6PD by transient siRNA transfection in H1975 cells. […] Therefore, the dramatic growth inhibition observed when 6-PGD was knocked down was not simply a result of PPP blockade. […]"}, "6-PGD": {"test_system": "6-PGD", "test": "Western blot of 6-PGD expression after inducible shRNA knockdown", "format": "cell-based, human", "details": "H1975 cells", "from_the_text": "as §1"}, "H1975 cells [3]": {"test_system": "H1975 cells", "test": "H1975 xenograft tumor growth in nude mice", "format": "in vivo", "details": "H1975 cells induced with doxycycline, subcutaneous in nude mice, tumors weighed after 18 days", "from_the_text": "We sought to test whether 6-PGD knockdown would inhibit tumor growth in a xenograft model. Control shRNA-, 6-PGD shRNA1, and 6-PGD shRNA2-H1975 cells were induced with doxycycline in vitro for three days prior to subcutaneous injection into nude mice. Mice were fed with doxycycline supplemented in drinking water. Tumors were excised after 18 days and weighed."}, "p53": {"test_system": "p53", "test": "Western blot of p53 expression in cells with 6-PGD knockdown", "format": "cell-based, human", "details": "H1975 cells", "from_the_text": "One of the main mechanisms for cellular senescence induction is the p53 pathway. Therefore we hypothesized that p53 expression might be increased in cells with 6-PGD knockdown."}, "H1975 cells [4]": {"test_system": "H1975 cells", "test": "Metabolite levels by mass spectrometry upon 6-PGD knockdown", "format": "cell-based, human", "details": "H1975, doxycycline three days, vs control shRNA", "protocol": "Both control- and 6-PGD shRNA1-expressing H1975 cells were treated with doxycycline for three days. Metabolites were extracted for analysis by mass spectrometry. Results are grouped according to metabolic pathways (Table 5). […] Specifically, as might be expected, 6-phospho-D-gluconate and D-glucono-δ-lactone-6-phosphate levels were up by 11 and 7.9 fold, respectively. Direct determination of the effects in the non-oxidative branch was more difficult, as levels of some key intermediates such as xylulose-5-phosphate and D-sedo-heptulose-7-phosphate were not determined in our mass spectrometric analysis. However, there was no change in the level of total ribose phosphates, downstream products of the PPP. Importantly, levels of all the triphosphate nucleotides essential for DNA and RNA synthesis were essentially unchanged. […] Glycolysis also appeared to be affected by 6-PGD knockdown. Both glucose-6-phosphate and fructose-6-phosphate levels were increased, perhaps due to a backlog in the PPP. […] We believe that these intermediates were shunted to the non-oxidative PPP via the transketolase reactions using glyceraldehyde-3-phosphate as the entry point. These transketolase reactions would compensate for the blockade at 6-PGD and provide a carbon source for ribose phosphate production and maintenance of dNTP/NTP levels. […] In particular NADPH level was determined by this metabolomic analysis to be also unchanged by 6-PGD knockdown, consistent with result obtained by the colorimetric assay (FIG. 5A)."}, "H1975 cells [5]": {"test_system": "H1975 cells", "test": "Oxygen consumption rate (OCR)", "format": "cell-based, human", "from_the_text": "We suspected that upon 6-PGD knockdown, these cells might have maintained NADPH level by enhanced glutaminolysis, another major mechanism for NADPH production. We therefore examined the rate of oxygen consumption of these cells, as NADPH production via glutaminolysis requires oxygen."}, "mouse 6-PGD": {"test_system": "mouse 6-PGD", "test": "Western blot of exogenous mouse 6-PGD expression in rescue experiment", "format": "cell-based", "details": "H1975 cells transduced with mouse-6PGD retrovirus, doxycycline induction", "from_the_text": "as §1"}},
  "note": "“And” between values parts separate entries of the source, which are not always exact repeats. Identical values can stand only once.",
  "data": [
    {"substance": "shRNA1: 6-PGD specific shRNA from Open Biosystems, Oligo ID V3LHS_381993, mature sequence AGU UUG AUG GUG AUA AGA A (guide AGUUUGAUGGUGAUAAGAA; shRNA hairpin; mature sequence only)", "values": [
      {"measurement": "number of cells positive for SA-β-GAL staining", "setting": "[1]", "value": "significantly increased"},
      {"measurement": "cell proliferation", "setting": "H1975 cells [2]", "value": "significantly blocked proliferation"},
      {"measurement": "expression of 6-PGD", "setting": "6-PGD", "value": "most effective"},
      {"measurement": "tumor growth", "setting": "H1975 cells [3]", "value": "significantly retarded tumor growth"},
      {"measurement": "p53 expression", "setting": "p53", "value": "significantly upregulated"},
      {"measurement": "Fold Change Glutamate", "setting": "H1975 cells [4]; Glutamine/Glutamate", "value": "−1.1", "unit": "fold"},
      {"measurement": "Fold Change Glutamine", "setting": "H1975 cells [4]; Glutamine/Glutamate", "value": "−1.1", "unit": "fold"},
      {"measurement": "Fold Change 1,3-Diphopshateglycerate", "setting": "H1975 cells [4]; Glycolysis", "value": 0.0, "unit": "fold"},
      {"measurement": "Fold Change 3-Phosphoglycerate", "setting": "H1975 cells [4]; Glycolysis", "value": "−2.1", "unit": "fold"},
      {"measurement": "Fold Change D-Glyceraldehdye-3-phosphate", "setting": "H1975 cells [4]; Glycolysis", "value": "−3.8", "unit": "fold"},
      {"measurement": "Fold Change Dihyroxyacetone-phosphate", "setting": "H1975 cells [4]; Glycolysis", "value": "−5.9", "unit": "fold"},
      {"measurement": "Fold Change Fructose-1,6-bisphosphate", "setting": "H1975 cells [4]; Glycolysis", "value": "−4.6", "unit": "fold"},
      {"measurement": "Fold Change Fructose-6-phosphate", "setting": "H1975 cells [4]; Glycolysis", "value": 1.4, "unit": "fold"},
      {"measurement": "Fold Change Glucose-6-phosphate", "setting": "H1975 cells [4]; Glycolysis", "value": 1.8, "unit": "fold"},
      {"measurement": "Fold Change Lactate", "setting": "H1975 cells [4]; Glycolysis", "value": "−1.2", "unit": "fold"},
      {"measurement": "Fold Change Phosphoenolpyruvate", "setting": "H1975 cells [4]; Glycolysis", "value": "−2.8", "unit": "fold"},
      {"measurement": "Fold Change Pyruvate", "setting": "H1975 cells [4]; Glycolysis", "value": 1.3, "unit": "fold"},
      {"measurement": "Fold Change ATP", "setting": "H1975 cells [4]; NTPs/dNTPs", "value": 1.2, "unit": "fold"},
      {"measurement": "Fold Change CTP", "setting": "H1975 cells [4]; NTPs/dNTPs", "value": 1.0, "unit": "fold"},
      {"measurement": "Fold Change GTP", "setting": "H1975 cells [4]; NTPs/dNTPs", "value": 1.5, "unit": "fold"},
      {"measurement": "Fold Change UTP", "setting": "H1975 cells [4]; NTPs/dNTPs", "value": 1.2, "unit": "fold"},
      {"measurement": "Fold Change dATP", "setting": "H1975 cells [4]; NTPs/dNTPs", "value": "−1.1", "unit": "fold"},
      {"measurement": "Fold Change dCTP", "setting": "H1975 cells [4]; NTPs/dNTPs", "value": 1.0, "unit": "fold"},
      {"measurement": "Fold Change dGTP", "setting": "H1975 cells [4]; NTPs/dNTPs", "value": 1.2, "unit": "fold"},
      {"measurement": "Fold Change dTTP", "setting": "H1975 cells [4]; NTPs/dNTPs", "value": "−1.2", "unit": "fold"},
      {"measurement": "Fold Change D-Glucono-δ-lactone-6-phosphate", "setting": "H1975 cells [4]; PPP", "value": 7.9, "unit": "fold"},
      {"measurement": "Fold Change Ribose-phosphate", "setting": "H1975 cells [4]; PPP", "value": 1.2, "unit": "fold"},
      {"measurement": "Fold Change 6-Phospho-D-gluconate", "setting": "H1975 cells [4]; PPP, listed as 6-PGD shRNA1", "value": "11 fold and 11.0 fold"},
      {"measurement": "Fold Change Glutathione", "setting": "H1975 cells [4]; REDOX", "value": "−1.3", "unit": "fold"},
      {"measurement": "Fold Change Glutathione disulfide", "setting": "H1975 cells [4]; REDOX", "value": 1.0, "unit": "fold"},
      {"measurement": "Fold Change NAD+", "setting": "H1975 cells [4]; REDOX", "value": 1.2, "unit": "fold"},
      {"measurement": "Fold Change NADH", "setting": "H1975 cells [4]; REDOX", "value": "−1.5", "unit": "fold"},
      {"measurement": "Fold Change NADP+", "setting": "H1975 cells [4]; REDOX", "value": 1.3, "unit": "fold"},
      {"measurement": "Fold Change NADPH", "setting": "H1975 cells [4]; REDOX", "value": "−1.1", "unit": "fold"},
      {"measurement": "Fold Change Acetyl-CoA", "setting": "H1975 cells [4]; TCA", "value": 1.6, "unit": "fold"},
      {"measurement": "Fold Change Citrate", "setting": "H1975 cells [4]; TCA", "value": 1.1, "unit": "fold"},
      {"measurement": "Fold Change Fumarate", "setting": "H1975 cells [4]; TCA", "value": 1.0, "unit": "fold"},
      {"measurement": "Fold Change Isocitrate", "setting": "H1975 cells [4]; TCA", "value": "−1.1", "unit": "fold"},
      {"measurement": "Fold Change Malate", "setting": "H1975 cells [4]; TCA", "value": "−1.3", "unit": "fold"},
      {"measurement": "Fold Change Oxaloacetate", "setting": "H1975 cells [4]; TCA", "value": "−1.1", "unit": "fold"},
      {"measurement": "Fold Change Succinate", "setting": "H1975 cells [4]; TCA", "value": "−1.3", "unit": "fold"},
      {"measurement": "Fold Change α-Ketoglutarate", "setting": "H1975 cells [4]; TCA", "value": "−1.2", "unit": "fold"},
      {"measurement": "oxygen consumption rate (OCR)", "setting": "H1975 cells [5]", "value": "significant increase"},
      {"measurement": "expression of mouse 6-PGD", "setting": "mouse 6-PGD", "value": "without affecting the expression of mouse 6-PGD"}
    ]},
    {"substance": "shRNA2: 6-PGD specific shRNA from Open Biosystems, Oligo ID V3LHS_381995, mature sequence AGG ACU GUC UCC AAA GUU G (guide AGGACUGUCUCCAAAGUUG; shRNA hairpin; mature sequence only)", "values": [
      {"measurement": "number of cells positive for SA-β-GAL staining", "setting": "[1]", "value": "significantly increased"},
      {"measurement": "expression of 6-PGD", "setting": "6-PGD", "value": "most effective"},
      {"measurement": "tumor growth", "setting": "H1975 cells [3]", "value": "significantly retarded tumor growth"},
      {"measurement": "p53 expression", "setting": "p53", "value": "significantly upregulated"},
      {"measurement": "oxygen consumption rate (OCR)", "setting": "H1975 cells [5]", "value": "significant increase"}
    ]}
  ]
}
